The test addresses T1, human α7 nAChR (Homo sapiens, UniProt P36544).
T1 construct: host or cells: GH4C1 cells (pituitary tumor, immortalized cell line)
In words: α7 nAChR FLIPR (Fluorometric Imaging Plate Reader) Ca2+ assay, agonist EC50. It is filed as cell-based. The following applies: GH4C1 cells stably transfected with human α7 nAChR; Fluo-4 Ca2+ fluorescence; Examples 194 to 205 tested as the HCl salt; read-out: pEC50 value (negative logarithm of the agonist EC50) (converted). How it is done: α7 nAChR FLIPR® (Fluorometric Imaging Plate Reader) Assay
Function of the heterologous expressed α7 nAChR was assessed by a FLIPR-Ca^2+ assay. Since nAChRs are non-selective cation channels with high permeability to Ca^2+, these studies were carried out by measuring changes of intracellular Ca^2+ concentration using the Ca^2+-chelating fluorescent dye Fluo-4 and FLIPR® (Fluorometric Imaging Plate Reader) technology.
GH4C1cells (pituitary tumor, immortalized cell line) stably transfected with human α7 nAChR (Biocat ID 96986), were thawed, suspended in growth medium (Ham's Nutrient Mixture F10—Ham's F10, Invitrogen 31550-023, 15% Horse Serum heat inactivated—Invitrogen 26050-047, 2.5% Foetal Bovine Serum—FBS, Gibco 10500-064, 200 μg/ml Hygromycin B—Invitrogen, 10687-010, 10 mg/L Phenol Red—Sigma, P 0290, 1 mM Glutamine—Invitrogen, 25030-024) and plated in 500 cm^2 Triple Flask.
Cells were then incubated at 30° C., 5% CO2 for 72 hours.
On the day of the experiment, cells were washed twice with Assay Buffer (AB) (145 mM NaCl, 5 mM KCl, 1 mM MgCl2, 2 mM CaCl2, 20 mM HEPES, 5.5 mM Glucose pH=7.3) containing 2.5 mM Probenecid. Changes in the intracellular Ca^2+ content of stably transfected cells were measured using the Ca^2+ chelating dye Fluo-4 (Tef Labs 0152) in conjunction with a FLIPR® (Molecular Devices). The cell permeant dye Fluo-4 was prepared to a concentration of 1 mM in 100% DMSO and 10% Pluronic acid. The dye was then diluted with AB to a final concentration of 2 μM and placed on the cells. After 45-60 minutes dye loading incubation at 37° C., the unincorporated dye was removed from the cells by washing (80 μL, 3 times) with AB, and a final volume of 30 μL/well of AB was left in each well.
Plates containing test compounds (dissolved in 100% DMSO at 2 mM and serially diluted with DMSO) were copied into “daughter” plates (1 μL/well dispensation). Just prior to starting the assay, the “daughter” plate was diluted with 50 μL/well of AB.
The plates were then placed in the FLIPR®, and cell fluorescence was determined before drug addition (30 seconds) and monitored (excitation 488 nm, emission 510-580 nm) immediately following exposure to compounds. Maximum fluorescence values were recorded and fitted for agonist EC50 calculations.
The results are expressed as pEC50 values. A pEC50 is the negative logarithm of the agonist EC50 calculation as determined in the α7 nAChR FLIPR® assay. […] Variations in pEC50 may arise between tests.

Each structure is given as a SMILES string. Bounds are passed on as bounds.

T1 sequence (P36544 23-502): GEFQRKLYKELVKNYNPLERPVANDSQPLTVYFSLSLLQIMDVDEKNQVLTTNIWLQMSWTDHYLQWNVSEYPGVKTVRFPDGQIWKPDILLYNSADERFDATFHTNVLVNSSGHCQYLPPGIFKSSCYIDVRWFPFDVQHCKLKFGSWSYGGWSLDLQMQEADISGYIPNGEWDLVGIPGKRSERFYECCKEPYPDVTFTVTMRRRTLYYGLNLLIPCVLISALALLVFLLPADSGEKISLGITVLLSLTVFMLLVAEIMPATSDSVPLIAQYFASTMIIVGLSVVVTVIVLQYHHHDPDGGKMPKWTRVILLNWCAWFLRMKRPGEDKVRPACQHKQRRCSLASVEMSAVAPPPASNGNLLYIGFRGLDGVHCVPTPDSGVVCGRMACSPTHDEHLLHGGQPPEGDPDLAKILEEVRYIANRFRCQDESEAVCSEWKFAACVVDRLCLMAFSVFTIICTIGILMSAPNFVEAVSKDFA

In general, EC50 refers to the concentration that produces a half-maximal response. Regarding `O=C(Nc1ccc(-c2nnc(NCCCN3CCOCC3)o2)c(C(F)(F)F)c1)c1ccccc1` [Example 93, N-[4-(5-{[3-(4-morpholinyl)propyl]amino}-1,3,4-oxadiazol-2-yl)-3-(trifluoromethyl)phenyl]benzamide], the EC50 is ≤ 1000 nM. As to `O=C(Nc1ccc(-c2nnc(NCCCCN3CCOCC3)o2)c(C(F)(F)F)c1)c1ccccc1` [Example 94, N-[4-(5-{[4-(4-morpholinyl)butyl]amino}-1,3,4-oxadiazol-2-yl)-3-(trifluoromethyl)phenyl]benzamide], the EC50 was ≤ 100 nM. Regarding `CCN(CC)CCCNc1nnc(-c2ccc(NC(=O)c3ccccc3)cc2C(F)(F)F)o1` [Example 95, N-[4-(5-{[3-(diethylamino)propyl]amino}-1,3,4-oxadiazol-2-yl)-3-(trifluoromethyl)phenyl]benzamide], the EC50 was ≤ 1000 nM. For the compound `CCN(CC)CCCCNc1nnc(-c2ccc(NC(=O)c3ccccc3)cc2C(F)(F)F)o1` [Example 96, N-[4-(5-{[4-(diethylamino)butyl]amino}-1,3,4-oxadiazol-2-yl)-3-(trifluoromethyl)phenyl]benzamide], the EC50 was ≤ 100 nM. With `O=C(Nc1ccc(-c2nnc(NCCCN3CCCCC3)o2)c(C(F)(F)F)c1)c1ccccc1` [Example 97, N-[4-(5-{[3-(1-piperidinyl)propyl]amino}-1,3,4-oxadiazol-2-yl)-3-(trifluoromethyl)phenyl]benzamide] the figure was ≤ 1000 nM; with `O=C(Nc1ccc(-c2nnc(NCCCCN3CCCCC3)o2)c(C(F)(F)F)c1)c1ccccc1` [Example 98, N-[4-(5-{[4-(1-piperidinyl)butyl]amino}-1,3,4-oxadiazol-2-yl)-3-(trifluoromethyl)phenyl]benzamide], ≤ 100 nM; with `O=C(Nc1ccc(-c2nnc(NCCCN3CCCC3)o2)c(Cl)c1)c1ccccc1` [Example 99], ≤ 1000 nM. In the case of `O=C(Nc1ccc(-c2nnc(NCCCCN3CCCC3)o2)c(Cl)c1)c1ccccc1` [Example 100, N-[3-chloro-4-(5-{[4-(1-pyrrolidinyl)butyl]amino}-1,3,4-oxadiazol-2-yl)phenyl]benzamide], the EC50 is ≤ 100 nM. In the case of `O=C(Nc1ccc(-c2nnc(NCCCN3CCOCC3)o2)c(Cl)c1)c1ccccc1` [Example 101, N-[3-chloro-4-(5-{[3-(4-morpholinyl)propyl]amino}-1,3,4-oxadiazol-2-yl)phenyl]benzamide], the 50% effective concentration (EC50) was ≤ 1000 nM. Turning to `O=C(Nc1ccc(-c2nnc(NCCCCN3CCOCC3)o2)c(Cl)c1)c1ccccc1` [Example 102, N-[3-chloro-4-(5-{[4-(4-morpholinyl)butyl]amino}-1,3,4-oxadiazol-2-yl)phenyl]benzamide], the 50% effective concentration (EC50) is ≤ 100 nM. Regarding `CCN(CC)CCCNc1nnc(-c2ccc(NC(=O)c3ccccc3)cc2Cl)o1` [Example 103, N-[3-chloro-4-(5-{[3-(diethylamino)propyl]amino}-1,3,4-oxadiazol-2-yl)phenyl]benzamide], the concentration giving a half-maximal response (EC50) was ≤ 1000 nM.

As to `CCN(CC)CCCCNc1nnc(-c2ccc(NC(=O)c3ccccc3)cc2Cl)o1` [Example 104, N-[3-chloro-4-(5-{[4-(diethylamino)butyl]amino}-1,3,4-oxadiazol-2-yl)phenyl]benzamide], the half-maximal effective concentration (EC50) was ≤ 100 nM. To `O=C(Nc1ccc(-c2nnc(NCCCN3CCCCC3)o2)c(Cl)c1)c1ccccc1` [Example 105, N-[3-chloro-4-(5-{[3-(1-piperidinyl)propyl]amino}-1,3,4-oxadiazol-2-yl)phenyl]benzamide] belongs ≤ 1000 nM; to `O=C(Nc1ccc(-c2nnc(NCCCCN3CCCCC3)o2)c(Cl)c1)c1ccccc1` [Example 106, N-[3-chloro-4-(5-{[4-(1-piperidinyl)butyl]amino}-1,3,4-oxadiazol-2-yl)phenyl]benzamide], ≤ 100 nM; to `O=C(Nc1ccc(-c2nnc(NCCCN3CCCC3)o2)c(F)c1)c1ccccc1` [Example 107, N-[3-fluoro-4-(5-{[3-(1-pyrrolidinyl)propyl]-amino}-1,3,4-oxadiazol-2-yl)phenyl]benzamide], ≤ 1000 nM. With `O=C(Nc1ccc(-c2nnc(NCCCCN3CCCC3)o2)c(F)c1)c1ccccc1` [Example 108, N-[3-fluoro-4-(5-{[4-(1-pyrrolidinyl)butyl]amino}-1,3,4-oxadiazol-2-yl)phenyl]benzamide] the figure was ≤ 100 nM.

As to `CCN(CC)CCCNc1nnc(-c2ccc(NC(=O)c3ccccc3)cc2F)o1` [Example 111, N-[4-(5-{[3-(diethylamino)propyl]amino}-1,3,4-oxadiazol-2-yl)-3-fluorophenyl]benzamide], the 50% effective concentration (EC50) is ≤ 1000 nM.

For the compound `CCN(CC)CCCCNc1nnc(-c2ccc(NC(=O)c3ccccc3)cc2F)o1` [Example 112, N-[4-(5-{[4-(diethylamino)butyl]amino}-1,3,4-oxadiazol-2-yl)-3-fluorophenyl]benzamide], the EC50 is ≤ 100 nM.

With `O=C(Nc1ccc(-c2nnc(NCCCN3CCCCC3)o2)c(F)c1)c1ccccc1` [Example 113, N-[3-fluoro-4-(5-{[3-(1-piperidinyl)propyl]amino}-1,3,4-oxadiazol-2-yl)phenyl]benzamide], the EC50 is ≤ 1000 nM.

With `O=C(Nc1ccc(-c2nnc(NCCCCN3CCCCC3)o2)c(F)c1)c1ccccc1` [Example 114, N-[3-fluoro-4-(5-{[4-(1-piperidinyl)butyl]amino}-1,3,4-oxadiazol-2-yl)phenyl]benzamide], the concentration for a half-maximal effect (EC50) is ≤ 100 nM. With `O=C(Nc1ccc(-c2nnc(NCCCCN3CCCC3)o2)cc1)c1ccccc1` [Example 115, N-[4-(5-{[4-(1-pyrrolidinyl)butyl]amino}-1,3,4-oxadiazol-2-yl)phenyl]benzamide] the figure was ≤ 100 nM; with `O=C(Nc1ccc(-c2nnc(NCCCCN3CCOCC3)o2)cc1)c1ccccc1` [Example 116, N-[4-(5-{[4-(4-morpholinyl)butyl]amino}-1,3,4-oxadiazol-2-yl)phenyl]benzamide], ≤ 1000 nM; with `O=C(Nc1ccc(-c2nnc(NCCCN3CCOCC3)o2)cc1)c1ccccc1` [Example 117, N-[4-(5-{[3-(4-morpholinyl)propyl]amino}-1,3,4-oxadiazol-2-yl)phenyl]benzamide], ≤ 1000 nM. `CCN(CC)CCCNc1nnc(-c2ccc(NC(=O)c3ccccc3)cc2)o1` [Example 118, N-[4-(5-{[3-(diethylamino)propyl]amino}-1,3,4-oxadiazol-2-yl)phenyl]benzamide]: the 50% effective concentration (EC50) was ≤ 1000 nM. In the case of `CCN(CC)CCCCNc1nnc(-c2ccc(NC(=O)c3ccccc3)cc2)o1` [Example 119, N-[4-(5-{[4-(diethylamino)butyl]amino}-1,3,4-oxadiazol-2-yl)phenyl]benzamide], the concentration giving a half-maximal response (EC50) is ≤ 100 nM. For `COc1cc(NC(=O)c2ccccc2F)ccc1-c1nnc(NCCCN2CCN3CCC2CC3)o1` [Example 120, N-[4-(5-{[3-(1,4-diazabicyclo[3.2.2]non-4-yl)propyl]amino}-1,3,4-oxadiazol-2-yl)-3-(methyloxy)phenyl]-2-fluorobenzamide], the EC50 is ≤ 100 nM.

Turning to `O=C(Nc1ccc(-c2nnc(NCCCN3CCN4CCC3CC4)o2)c(F)c1)c1ccccc1F` [Example 121, N-[4-(5-{[3-(1,4-diazabicyclo[3.2.2]non-4-yl)propyl]amino}-1,3,4-oxadiazol-2-yl)-3-fluorophenyl]-2-fluorobenzamide], the EC50 was ≤ 100 nM. Turning to `COc1cc(NC(=O)c2ccccc2)ccc1-c1nnc(NCCCN2CCN3CCC2CC3)o1` [Example 122, N-[4-(5-{[3-(1,4-diazabicyclo[3.2.2]non-4-yl)propyl]amino}-1,3,4-oxadiazol-2-yl)-3-(methyloxy)phenyl]benzamide], the EC50 is ≤ 100 nM.

For the compound `O=C(Nc1ccc(-c2nnc(NCCCN3CCN4CCC3CC4)o2)cc1)c1ccccc1` [Example 123, N-[4-(5-{[3-(1,4-diazabicyclo[3.2.2]non-4-yl)propyl]amino}-1,3,4-oxadiazol-2-yl)phenyl]benzamide], the concentration giving a half-maximal response (EC50) is ≤ 100 nM. Turning to `O=C(Nc1ccc(-c2nnc(NCCCN3CCN4CCC3CC4)o2)c(F)c1)c1ccccc1` [Example 124, N-[4-(5-{[3-(1,4-diazabicyclo[3.2.2]non-4-yl)propyl]amino}-1,3,4-oxadiazol-2-yl)-3-fluorophenyl]benzamide], the EC50 is ≤ 100 nM.

Values taken from US20090105217A1, “2-PHENYL-5-AMINO-1,3,4-OXADIAZOLES AND THEIR USE AS NICOTINIC ACETYLCHOLINE RECEPTOR LIGANDS” (priority 2007, published 2009).
